Laboratory results as given in patent US8591943B2, “Pyrazolo[1,5-a]pyrimidine derivatives as mTOR inhibitors” (Merck Sharp & Dohme Corp., priority 2009, dated 2013).

What was measured:
mTOR enzyme = mTOR enzyme (Homo sapiens, UniProt P42345); experiment: mTOR Kinase Assay; assay type: biochemical; details: rated A-F
Experimental: The mTOR assay buffer contains 10 mM hepes (pH 7.4), 50 mM NaCl, 100 μg/ml BSA, 50 mM B-glycerophosphate, 10 mM MnCl2 and 0.5 mM DTT. 20 ng of mTOR enzyme is preincubated with the compound for 10 minutes. 5 μM ATP and 0.1 μM GSTS6K is added. The reaction is incubated for one hour at 30° C. Anti phospho p70S6K (about 1.7 ng/well) and anti GSTXL665 (1:1 Ratio with the substrate GSTS6K) are added after incubating. The plates are read at least 2 hours after adding the anti phospho p70S6K and the anti GSTXL665.

Cyclin E/CDK2 = molecular target: T1, Cyclin E/CDK2 (Homo sapiens, UniProt P24941); experiment: In Vitro Cyclin E/CDK2 Kinase Assay; assay type: biochemical; details: rated A-F
T1 construct: made in house; host or cells: SF9 cells, baculovirus co-infection
Excerpt: Cyclin E was cloned into pVL1393 (Pharmingen, La Jolla, Calif.) by PCR, with the addition of 5 histidine residues at the amino-terminal end to allow purification on nickel resin. The expressed protein was approximately 45 kDa. CDK2 was cloned into pVL1393 by PCR, with the addition of a haemaglutinin epitope tag at the carboxy-terminal end (YDVPDYAS). The expressed protein was approximately 34 kDa in size.
Recombinant baculoviruses expressing cyclin E and CDK2 were co-infected into SF9 cells at an equal multiplicity of infection (MOI=5), for 48 hrs. Cells were harvested by centrifugation at 1000 RPM for 10 minutes, then pellets lysed on ice for 30 minutes in five times the pellet volume of lysis buffer containing 50 mM Tris pH 8.0, 150 mM NaCl, 1% NP40, 1 mM DTT and protease inhibitors (Roche Diagnostics GmbH, Mannheim, Germany). Lysates were spun down at 15000 RPM for 10 minutes and the supernatant retained. 5 mL of nickel beads (for one liter of SF9 cells) were washed three times in lysis buffer (Qiagen GmbH, Germany). Imidazole was added to the baculovirus supernatant to a final concentration of 20 mM, then incubated with the nickel beads for 45 minutes at 4° C. Proteins were eluted with lysis buffer containing 250 mM imidazole. Eluate was dialyzed about 15 hours in 2 liters of kinase buffer containing 50 mM Tris pH 8.0, 1 mM DTT, 10 mM MgCl2, 100 μM sodium orthovanadate and 20% glycerol. Enzyme was stored in aliquots at −70° C.
Cyclin E/CDK2 kinase assays can be performed as described below in low protein binding 96-well plates (Corning Inc, Corning, N.Y.).
The substrate used in these reactions is a biotinylated peptide derived from Histone H1 (from Amersham, UK). The substrate is thawed on ice and diluted to 2 μM in kinase buffer. Test compounds are diluted in 10% DMSO to desirable concentrations. For each kinase reaction, 20 μL of the 50 μg/mL enzyme solution (1 μg of enzyme) and 20 μl of the 2 μM substrate solution are mixed, then combined with 10 μL of diluted compound in each well for testing. The kinase reaction is initiated by addition of 50 μL of 2 μM ATP and 0.1 μCi of ^33P-ATP (from Amersham, UK). The reaction is allowed to run for 1 hour at room temperature, then is stopped by adding 200 μL of stop buffer containing 0.1% Triton X-100, 1 mM ATP, 5 mM EDTA, and 5 mg/mL streptavidine coated SPA beads (from Amersham, UK) for 15 minutes. The SPA beads are then captured onto a 96-well GFIB filter plate (Packard/Perkin Elmer Life Sciences) using a Filtermate universal harvester (Packard/Perkin Elmer Life Sciences.). Non-specific signals are eliminated by washing the beads twice with 2M NaCl then twice with 2 M NaCl with 1% phosphoric acid. The radioactive signal can then be measured using, for example, a TopCount 96 well liquid scintillation counter (from Packard/Perkin Elmer Life Sciences).

recombinant His-CHK1 = molecular target: T2, recombinant His-CHK1 (Homo sapiens, UniProt O14757); experiment: CHK1 In Vitro Kinase Assay
T2 sequence (O14757 1-265 limits assumed): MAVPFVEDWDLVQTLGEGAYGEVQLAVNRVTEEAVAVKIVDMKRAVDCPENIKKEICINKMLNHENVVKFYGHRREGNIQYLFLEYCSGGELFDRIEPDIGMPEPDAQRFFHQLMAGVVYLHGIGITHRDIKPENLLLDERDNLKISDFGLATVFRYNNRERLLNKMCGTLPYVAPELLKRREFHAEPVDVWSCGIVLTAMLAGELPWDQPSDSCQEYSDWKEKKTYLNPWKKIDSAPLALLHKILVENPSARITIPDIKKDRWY

Compound	IC50 (mTOR enzyme) [nM]	IC50 (Cyclin E/CDK2) [µM]	IC50 (recombinant His-CHK1) [µM]
Nc1c(Br)c(N2CCN3C(=O)NC(=O)CC3C2)nc2c(-c3cnc4ccccc4c3)cnn12 (stereo not drawn) [Compound 10.5]	< 100	0.501 to 1	> 5
COC(=O)[C@H]1CC[C@@H](c2nc3c(-c4cnc5ccccc5c4)cnn3c(N)c2Br)CN1 (stereo in doubt) [Compound 2.7]	101 to 200	> 5	> 5
N#CCC1CCC(c2nc3c(-c4cnc5ccccc5c4)cnn3c(N)c2Br)CC1 (stereo not drawn) [Compound 5.2]	< 100	> 5	> 5
Nc1c(Br)c(N2CCN3C(=O)CCC3C2)nc2c(-c3cnc4ccccc4c3)cnn12 (stereo not drawn) [Compound 10.26]	< 100	> 5	> 5
CS(=O)(=O)NC(=O)C[C@H]1CC[C@H](c2nc3c(-c4cnc5ccccc5c4)cnn3c(N)c2Br)CC1 [Compound 7.5]	< 100	> 5	> 5
CC(=O)c1c(N2CCS(=O)(=O)CC2)nc2c(-c3cnc4ccccc4c3)cnn2c1N [Compound 10.62]	< 100	> 5	> 5
COC(=O)c1ccc(-c2cc(N)n3ncc(-c4cnc5ccccc5c4)c3n2)cn1 [Compound 11.3]	1000 to 5000	> 5	> 5
